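Step 1: Grow cells in 96-well plates. Step 2: Expose to compound for 48 hours at 5 concentrations. Step 3: Interpolate endpoints linearly; if unreached, use highest concentration. Here, GI50 denotes the concentration required for 50% inhibition of growth.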 The source made the active and inactive calls. Cut-off read from the data, not from the text of the source: active = GI50 up to about 1.1 µM and inactive = higher.
Experiments:
Experiment in all cases: DTP human tumour cell line panel, 48 h
IGROV-1 = system: IGROV-1
RXF 393 = system: RXF 393
SR = system: SR
MDA-MB-435 = system: MDA-MB-435
MDA-MB-231 = system: MDA-MB-231
MOLT-4 = system: MOLT-4
SF-268 = system: SF-268
OVCAR-3 = system: OVCAR-3
PC-3 = system: PC-3
HCT-116 = system: HCT-116
OVCAR-4 = system: OVCAR-4
SW-620 = system: SW-620
HCT-15 = system: HCT-15
KM12 = system: KM12
A549 = system: A549
U-251 = system: U-251
EKVX = system: EKVX
DLD-1 = system: DLD-1
Hs-578T = system: Hs-578T
MCF7 = system: MCF7

Question: What does the source list for `O=C1c2ccsc2C(=O)c2sc(CO)cc21`?
Answer: GI50 (IGROV-1): 0.627 µM (active); GI50 (RXF 393): 1.09 µM (active); GI50 (SR): 0.0984 µM (active); GI50 (MDA-MB-435): < 0.0132 µM (active); GI50 (MDA-MB-231): 0.159 µM (active); GI50 (MOLT-4): 0.524 µM (active); GI50 (SF-268): 1.11 µM (active); GI50 (OVCAR-3): 1.59 µM (inactive); GI50 (PC-3): 0.126 µM (active); GI50 (HCT-116): 0.11 µM (active); GI50 (OVCAR-4): 0.167 µM (active); GI50 (SW-620): 0.0564 µM (active); GI50 (HCT-15): 0.0421 µM; GI50 (KM12): 1.79 µM (inactive); GI50 (A549): 0.0507 µM (active); GI50 (U-251): 0.156 µM (active); GI50 (EKVX): 1.65 µM (inactive); GI50 (DLD-1): 0.176 µM (active); GI50 (Hs-578T): 0.0611 µM (active)

Question: What does the source list for `C=C(CN(C)C)C(=O)c1ccc(C)cc1C`?
Answer: GI50 (IGROV-1): 7.23 µM (inactive); GI50 (RXF 393): 4.51 µM (inactive); GI50 (SR): 1.25 µM (inactive); GI50 (MDA-MB-435): 5.94 µM (inactive); GI50 (MDA-MB-231): 13.3 µM (inactive); GI50 (MOLT-4): 1.01 µM (active); GI50 (SF-268): 15.3 µM (inactive); GI50 (OVCAR-3): 7.87 µM (inactive); GI50 (PC-3): 14.1 µM (inactive); GI50 (HCT-116): 5.61 µM (inactive); GI50 (OVCAR-4): 9.86 µM (inactive); GI50 (SW-620): 2.74 µM (inactive); GI50 (HCT-15): 4.52 µM; GI50 (KM12): 15.9 µM (inactive); GI50 (A549): 32.2 µM (inactive); GI50 (U-251): 16.9 µM (inactive); GI50 (EKVX): 12.9 µM (inactive); GI50 (DLD-1): 3.88 µM (inactive); GI50 (Hs-578T): 26.1 µM (inactive); GI50 (MCF7): 3.3 µM (inactive)

Question: Which GI50 (IGROV-1) does the source give for `CCOC(=O)C1=C(O)C(=O)c2cc(OC)ccc2C1=O` here?
Answer: > 100 µM (inactive)

Question: What about the GI50 (RXF 393) of the same compound?
Answer: > 100 µM (inactive)

Question: And the GI50 (SR)?
Answer: > 100 µM (inactive)

Question: What about the GI50 (MOLT-4) of the same compound?
Answer: > 100 µM (inactive)

Question: What about the GI50 (SF-268) of the same compound?
Answer: > 100 µM (inactive)

Question: What about the GI50 (OVCAR-3) of the same compound?
Answer: > 100 µM (inactive)

Question: What about the GI50 (HCT-116) of the same compound?
Answer: 95.5 µM (inactive)

Question: What about the GI50 (OVCAR-4) of the same compound?
Answer: > 100 µM (inactive)

Question: What about the GI50 (SW-620) of the same compound?
Answer: > 100 µM (inactive)

Question: And the GI50 (HCT-15)?
Answer: > 100 µM

Question: And the GI50 (KM12)?
Answer: > 100 µM (inactive)

Question: And the GI50 (A549)?
Answer: 96.2 µM (inactive)

Question: What about the GI50 (U-251) of the same compound?
Answer: > 100 µM (inactive)

Question: And the GI50 (EKVX)?
Answer: > 100 µM (inactive)

Question: What about the GI50 (DLD-1) of the same compound?
Answer: > 100 µM (inactive)

Question: With `C[C@H]1[C@H](C)CC[C@]2(C(=O)O)CCC3(COC(=O)/C=C/c4ccc(O)cc4)C(=CCC4[C@@]5(C)CC[C@H](O)C(C)(C)C5CC[C@]43C)[C@H]12` (some centres undefined) as the compound, how does the GI50 (IGROV-1) read?
Answer: 3.46 µM (inactive)

Question: What about the GI50 (RXF 393) of the same compound?
Answer: 10.9 µM (inactive)

Question: What about the GI50 (SR) of the same compound?
Answer: 3.91 µM (inactive)

Question: And the GI50 (MOLT-4)?
Answer: 3.52 µM (inactive)

Question: And the GI50 (SF-268)?
Answer: 4.67 µM (inactive)

Question: What about the GI50 (OVCAR-3) of the same compound?
Answer: 4.8 µM (inactive)

Question: And the GI50 (HCT-116)?
Answer: 3.62 µM (inactive)

Question: And the GI50 (OVCAR-4)?
Answer: 5.96 µM (inactive)

Question: What about the GI50 (SW-620) of the same compound?
Answer: 3.36 µM (inactive)

Question: What about the GI50 (HCT-15) of the same compound?
Answer: 4.62 µM

Question: What about the GI50 (KM12) of the same compound?
Answer: 3.47 µM (inactive)

Question: And the GI50 (A549)?
Answer: 2.61 µM (inactive)

Question: And the GI50 (U-251)?
Answer: 2.33 µM (inactive)

Question: What about the GI50 (EKVX) of the same compound?
Answer: 11 µM (inactive)

Question: What about the GI50 (DLD-1) of the same compound?
Answer: 3.39 µM (inactive)

Question: Which results are given for `CCOC(=O)C1C(=O)C(=O)N2CCc3c([nH]c4ccccc34)C12` (centres undefined)?
Answer: GI50 (IGROV-1): > 100 µM (inactive); GI50 (RXF 393): > 100 µM (inactive); GI50 (SR): > 100 µM (inactive); GI50 (MOLT-4): > 100 µM (inactive); GI50 (SF-268): > 100 µM (inactive); GI50 (OVCAR-3): > 100 µM (inactive); GI50 (HCT-116): > 100 µM (inactive); GI50 (OVCAR-4): > 100 µM (inactive); GI50 (SW-620): > 100 µM (inactive); GI50 (HCT-15): > 100 µM; GI50 (KM12): > 100 µM (inactive); GI50 (A549): > 100 µM (inactive); GI50 (U-251): > 100 µM (inactive); GI50 (EKVX): > 100 µM (inactive); GI50 (DLD-1): > 100 µM (inactive)

Question: What does the source list for `C[N+]1(C)C/C(=C\c2ccc(O)cc2)C(=O)/C(=C/c2ccc(O)cc2)C1`?
Answer: GI50 (IGROV-1): > 100 µM (inactive); GI50 (RXF 393): > 100 µM (inactive); GI50 (SR): 82.4 µM (inactive); GI50 (MOLT-4): 47.4 µM (inactive); GI50 (SF-268): 55.7 µM (inactive); GI50 (OVCAR-3): > 100 µM (inactive); GI50 (HCT-116): 34 µM (inactive); GI50 (OVCAR-4): > 100 µM (inactive); GI50 (SW-620): > 100 µM (inactive); GI50 (HCT-15): 60.1 µM; GI50 (KM12): 45.1 µM (inactive); GI50 (A549): 37.5 µM (inactive); GI50 (U-251): 49.5 µM (inactive); GI50 (EKVX): > 100 µM (inactive); GI50 (DLD-1): 49.7 µM (inactive)

Question: `CN1C(=O)c2cccc3c([N+](=O)[O-])ccc(c23)C1=O` was tested. Which GI50 (IGROV-1) did it give?
Answer: 3.49 µM (inactive)

Question: What about the GI50 (RXF 393) of the same compound?
Answer: 3.1 µM (inactive)

Question: And the GI50 (SR)?
Answer: 3.25 µM (inactive)

Question: What about the GI50 (MOLT-4) of the same compound?
Answer: 5.55 µM (inactive)

Question: And the GI50 (SF-268)?
Answer: 9.68 µM (inactive)

Question: What about the GI50 (OVCAR-3) of the same compound?
Answer: 3.19 µM (inactive)

Question: What about the GI50 (HCT-116) of the same compound?
Answer: 6.52 µM (inactive)

Question: What about the GI50 (OVCAR-4) of the same compound?
Answer: 13 µM (inactive)

Question: What about the GI50 (SW-620) of the same compound?
Answer: 2.43 µM (inactive)

Question: And the GI50 (HCT-15)?
Answer: 2.84 µM

Question: And the GI50 (KM12)?
Answer: 4.94 µM (inactive)

Question: What about the GI50 (A549) of the same compound?
Answer: 12.7 µM (inactive)

Question: What about the GI50 (U-251) of the same compound?
Answer: 3.7 µM (inactive)

Question: What about the GI50 (EKVX) of the same compound?
Answer: 13.7 µM (inactive)

Question: And the GI50 (DLD-1)?
Answer: 2.82 µM (inactive)

From ChEMBL document CHEMBL1201862, “PubChem BioAssay data set” (2004)
